The results in this text go back to US20110160399A1, “HISTONE MODIFICATION INHIBITOR SPECIFIC TO TARGET GENE” (NIHON UNIVERSITY, priority 2008, published 2011).

The subject of assay [1] is histone deacetylase (HDAC). Briefly: HDAC activity assay (HDAC Fluorimetric Assay/Drug Discovery Kit). It is filed as biochemical, human. As to conditions: HDAC-containing HeLa cell nuclear fraction, 37°C for 1 hour, various concentrations, FIG. 2. As to the method: To verify whether the activity of histone deacetylase (HDAC) was inhibited by compounds composed of the synthesized SAHA derivatives and polyamides attached to each other, an HDAC Fluorimetric Assay/Drug Discovery Kit (BIOMOL international) was used in the experiment. Although details followed the instructions of the kit manufacturer, an HDAC-containing HeLa cell (human uterine cervical cancer cell line) nuclear fraction was added to an acetylation substrate and incubated at 37° C. for 1 hour in the presence of various concentrations of the synthesized compounds or trichostatin A (hereinafter referred to as TSA) used as a positive control, followed by addition of the developer included in the kit to stop the HDAC-catalyzed reaction. Then, the samples were transferred to a 96-well assay plate and measured with ARVO EX (Perkin Elmer) for emission at 460 nm from the reaction product upon excitation at 360 nm.

In assay [2] the test system is HeLa (human uterine cervical cancer cell line). The assay is described as follows: Cell proliferation assay (WST-8) on HeLa cells. It is filed as cell-based. The note with it: 72 hours, various concentrations, WST-8, FIG. 3, FIG. 4. As to the method: Next, the synthesized compounds were verified by WST-8 assay for their ability to suppress cancer cell proliferation.
Cell lines of HeLa (human uterine cervical cancer cell line), LOVO, RKO and SW480 (each of which was a human large bowel cancer cell line) were each cultured at 37° C. under 5% carbon dioxide conditions using Dulbecco's modified Eagle's medium (DMEM, Nacalai Tesque, Inc., Japan) supplemented with 10% fetal bovine serum (FBS: JRH bioscience, USA), antibiotics (50 U/ml penicillin and 50 μg/ml streptomycin) and 1 mM sodium pyruvate. Single-layered cells grown to 80-90% confluency on 10 cm cell culture dishes were washed with D-PBS(−) (Nacalai Tesque, Inc., Japan) and then released from the dishes by being treated with a phenol red-containing 2.5 g/L-Trypsine/1 mmol/L EDTA solution (Nacalai Tesque, Inc., Japan). The released cells were adjusted and maintained in fresh medium.
Each cell line seeded at 3×10^3 cells/well in a MICROTEST tissue culture plate (96 well, FALCON) was cultured at 37° C. under 5% carbon dioxide conditions for 24 hours, and then cultured in the presence of various concentrations of PI polyamide for an additional 72 hours. After completion of the culture, 10 μl of viable cell counting reagent SF (Nacalai Tesque, Inc., Japan) was added to each well and the absorbance at 450 nm was measured by ARVO EX (PerkinElmer). During the period from reagent addition until assay, incubation was continued at 37° C. in the presence of 5% CO2 until the absorbance reached about 1.2 to 2.0 in the control sample where only 50% DMSO was added to the cells.

Assay [3] concerns MDA-MB231 breast cancer cells. Briefly: Cell proliferation assay (II), trypan blue cell counts. It counts as cell-based. As to conditions: after culture for 72 hours, FIG. 12. As to the method: MDA-MB231 breast cancer cells (1×10^5 cells) were cultured in 6 cm diameter dishes using RPMI-1640 medium containing fetal bovine serum at a final concentration of 10%. For culture, the medium was supplemented with or without each polyamide (SAHA+p16NU PIP or SAHA+non-targeting PIP) at the final concentration indicated below.
Starting from the initiation of culture, the following operation was repeated every 24 hours. Namely, after being observed under a microscope, the cells were harvested and counted to determine the numbers of viable cells […] and dead cells […]. As a result, proliferation of the cells and their survival rate were determined.

As to `CN(C)CCCNC(=O)CCNC(=O)c1cc(NC(=O)c2cc(NC(=O)c3nc(NC(=O)CCCNC(=O)c4cc(NC(=O)c5nc(NC(=O)c6nc(NC(=O)CCNC(=O)CCNC(=O)c7ccc(NC(=O)CCCCCCC(=O)NO)cc7)cn6C)cn5C)cn4C)cn3C)cn2C)cn1C` [SAHA+non-targeting PIP, SAHA-ββImPyPyγImImPyβDp], the anti-HDAC activity entry in assay [1] is listed as “confirmed to have anti-HDAC activity”. Besides, the “suppression of HeLa cell proliferation” value in assay [2] is on record as “not suppressed”.

With `CC(/C=C/C(=O)NO)=C\[C@@H](C)C(=O)c1ccc(N(C)C)cc1` [TSA, trichostatin A, reference compound], the anti-HDAC activity result in assay [1] is on record as “high activity”. For the same compound, the “suppression of HeLa cell proliferation” value in assay [2] was “proliferation inhibition”.

Turning to `O=C(CCCCCCC(=O)Nc1ccccc1)NO` [SAHA, suberoylanilide hydroxamic acid, reference compound], the “suppression of HeLa cell proliferation” value in assay [2] is reported as “did not suppress”.

For the compound `COC(=O)CCCCCCC(=O)Nc1ccc(C(=O)NCCC(=O)NCCC(=O)Nc2cn(C)c(C(=O)Nc3cc(C(=O)Nc4cc(C(=O)NCCC(=O)Nc5cn(C)c(C(=O)Nc6cc(C(=O)NCCCC(=O)Nc7cn(C)c(C(=O)Nc8cc(C(=O)NCCC(=O)Nc9cn(C)c(C(=O)Nc%10cn(C)c(C(=O)Nc%11cc(C(=O)NCCC(=O)NCCCN(C)C)n(C)c%11)n%10)n9)n(C)c8)n7)n(C)c6)n5)n(C)c4)n(C)c3)n2)cc1` [esterified SAHA+p16 PIP, 4-(8-methoxy-8-oxooctanamido)benzoyl-ββImPyPyβImPyγImPyβImIm PyβDp], the anti-HDAC activity entry is reported as “no HDAC activity” in assay [1]; “did not inhibit HDAC activity” in assay [1] (listed as conjugate between esterified SAHA and p16 PIP). Besides, the “suppression of HeLa cell proliferation” value in assay [2] is listed as “not suppressed”.

“SAHA-H2NββPyPyβPyPyPyγImImImβPyImβDp [SAHA+p16NU PIP]”: the “cell proliferation significantly suppressed, compared to untreated group or 1 μM SAHA+non-targeting PIP” value in assay [3] (MDA-MB231, 1 μM) is given as 83%; in assay [3] (MDA-MB231, 2 μM), “about 60%”.

“SAHA-(PEG) ββImPyPyβImPyγImPyβImImPyβDp [SAHA+ether linker+p16 PIP]”: the anti-HDAC activity entry in assay [1] is listed as “confirmed to have anti-HDAC activity”.
